Source: the supplement of paper PMC10307832

Key:
Test in all cases: relative viability (nuclei count vs DMSO), 5 days (fraction); higher = more cells survive
[1] = tested on: 201T
Procedure, shortened: (§1)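 For relative viability, nuclei counts in treated wells were divided by those in vehicle wells. Lung cancer cell lines had been pin-tool dosed in 1536-well plates the day after seeding and cultured for 5 days, then fixed and stained in one step (final 0.05% Triton X-100, 1% formaldehyde, 1 ug/ml Hoechst) and imaged at 4×. Doses were one drug alone or a fixed anchor-drug dose plus five library-drug doses (not always all listed) in √10 steps, and values are duplicate-plate medians.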

[2] = tested on: BEN
Procedure, shortened: as §1

[3] = tested on: HARA
Procedure, shortened: as §1

[4] = tested on: HCC-366
Procedure, shortened: as §1

[5] = tested on: HCC-44
Procedure, shortened: as §1

[6] = tested on: HCC-78
Procedure, shortened: as §1

[7] = tested on: LU99A
Procedure, shortened: as §1

[8] = tested on: NCI-H1355
Procedure, shortened: as §1

[9] = tested on: NCI-H1437
Procedure, shortened: as §1

[10] = tested on: NCI-H1734
Procedure, shortened: as §1

[11] = tested on: NCI-H2009
Procedure, shortened: as §1

[12] = tested on: NCI-H2126
Procedure, shortened: as §1

[13] = tested on: NCI-H2347
Procedure, shortened: as §1

[14] = tested on: NCI-H2405
Procedure, shortened: as §1

[15] = tested on: NCI-H358
Procedure, shortened: as §1

[16] = tested on: NCI-H441
Procedure, shortened: as §1

[17] = tested on: NCI-H520
Procedure, shortened: as §1

[18] = tested on: NCI-H727
Procedure, shortened: as §1

[19] = tested on: NCI-H838
Procedure, shortened: as §1

[20] = tested on: PC-3 [JPC-3]
Procedure, shortened: as §1

[21] = tested on: SW 1573
Procedure, shortened: as §1

[22] = tested on: UMC-11
Procedure, shortened: as §1

COCC1(CO)C(=O)C2CCN1CC2 (stereo not drawn) [PRIMA-1MET] + Cc1nc(NC(=O)N2CCC[C@H]2C(N)=O)sc1-c1ccnc(C(C)(C)C(F)(F)F)c1 [Alpelisib] (partner 2 µM)
relative viability ([1]; first compound 0.2 µM): 1.04
relative viability ([1]; first compound 0.6325 µM): 0.971
relative viability ([1]; first compound 2 µM): 0.885
relative viability ([1]; first compound 6.325 µM): 1.05
relative viability ([1]; first compound 20 µM): 1.03
relative viability ([2]; first compound 0.2 µM): 1.26
relative viability ([2]; first compound 0.6325 µM): 0.833
relative viability ([2]; first compound 6.325 µM): 0.909
relative viability ([2]; first compound 20 µM): 0.994
relative viability ([3]; first compound 0.2 µM): 0.97
relative viability ([3]; first compound 0.6325 µM): 0.603
relative viability ([3]; first compound 6.325 µM): 0.836
relative viability ([3]; first compound 20 µM): 0.954
relative viability ([4]; first compound 0.2 µM): 0.865
relative viability ([4]; first compound 0.6325 µM): 0.37
relative viability ([4]; first compound 6.325 µM): 0.376
relative viability ([4]; first compound 20 µM): 0.0102
relative viability ([5]; first compound 0.2 µM): 0.87
relative viability ([5]; first compound 0.6325 µM): 0.647
relative viability ([5]; first compound 2 µM): 0.673
relative viability ([5]; first compound 6.325 µM): 0.801
relative viability ([5]; first compound 20 µM): 0.737
relative viability ([6]; first compound 0.2 µM): 0.364
relative viability ([6]; first compound 0.6325 µM): 0.26
relative viability ([6]; first compound 6.325 µM): 0.335
relative viability ([6]; first compound 20 µM): 0.0523
relative viability ([7]; first compound 0.2 µM): 0.631
relative viability ([7]; first compound 0.6325 µM): 0.457
relative viability ([7]; first compound 2 µM): 0.488
relative viability ([7]; first compound 6.325 µM): 0.293
relative viability ([7]; first compound 20 µM): 0.0448
relative viability ([8]; first compound 0.2 µM): 0.953
relative viability ([8]; first compound 0.6325 µM): 0.7
relative viability ([8]; first compound 2 µM): 0.766
relative viability ([8]; first compound 6.325 µM): 0.86
relative viability ([8]; first compound 20 µM): 0.852
relative viability ([9]; first compound 0.2 µM): 1
relative viability ([9]; first compound 0.6325 µM): 0.972
relative viability ([9]; first compound 2 µM): 1.01
relative viability ([9]; first compound 6.325 µM): 1.12
relative viability ([9]; first compound 20 µM): 0.926
relative viability ([10]; first compound 0.2 µM): 0.876
relative viability ([10]; first compound 0.6325 µM): 0.658
relative viability ([10]; first compound 2 µM): 0.679
relative viability ([10]; first compound 6.325 µM): 0.73
relative viability ([10]; first compound 20 µM): 0.3
relative viability ([11]; first compound 0.2 µM): 1.12
relative viability ([11]; first compound 0.6325 µM): 1.15
relative viability ([11]; first compound 2 µM): 1.23
relative viability ([11]; first compound 6.325 µM): 1.13
relative viability ([11]; first compound 20 µM): 0.325
relative viability ([12]; first compound 0.2 µM): 0.822
relative viability ([12]; first compound 0.6325 µM): 0.749
relative viability ([12]; first compound 2 µM): 0.743
relative viability ([12]; first compound 6.325 µM): 0.848
relative viability ([12]; first compound 20 µM): 0.706
relative viability ([13]; first compound 0.2 µM): 1.08
relative viability ([13]; first compound 0.6325 µM): 1.01
relative viability ([13]; first compound 2 µM): 0.602
relative viability ([13]; first compound 6.325 µM): 1.08
relative viability ([13]; first compound 20 µM): 0.923
relative viability ([14]; first compound 0.2 µM): 0.517
relative viability ([14]; first compound 0.6325 µM): 0.896
relative viability ([14]; first compound 6.325 µM): 0.625
relative viability ([14]; first compound 20 µM): 0.0731
relative viability ([15]; first compound 0.2 µM): 1.17
relative viability ([15]; first compound 0.6325 µM): 0.781
relative viability ([15]; first compound 6.325 µM): 0.908
relative viability ([15]; first compound 20 µM): 0.0962
relative viability ([16]; first compound 0.2 µM): 0.648
relative viability ([16]; first compound 0.6325 µM): 0.792
relative viability ([16]; first compound 2 µM): 0.762
relative viability ([16]; first compound 6.325 µM): 0.816
relative viability ([16]; first compound 20 µM): 0.118
relative viability ([17]; first compound 0.2 µM): 1.21
relative viability ([17]; first compound 0.6325 µM): 0.84
relative viability ([17]; first compound 6.325 µM): 0.831
relative viability ([17]; first compound 20 µM): 0.0746
relative viability ([18]; first compound 0.2 µM): 0.592
relative viability ([18]; first compound 0.6325 µM): 0.612
relative viability ([18]; first compound 2 µM): 0.568
relative viability ([18]; first compound 6.325 µM): 0.402
relative viability ([18]; first compound 20 µM): 0.0858
relative viability ([19]; first compound 0.2 µM): 1.26
relative viability ([19]; first compound 0.6325 µM): 0.968
relative viability ([19]; first compound 2 µM): 1.06
relative viability ([19]; first compound 6.325 µM): 1.13
relative viability ([19]; first compound 20 µM): 0.61
relative viability ([20]; first compound 0.2 µM): 1.1
relative viability ([20]; first compound 0.6325 µM): 0.942
relative viability ([20]; first compound 2 µM): 1.02
relative viability ([20]; first compound 6.325 µM): 1.07
relative viability ([20]; first compound 20 µM): 1.06
relative viability ([21]; first compound 0.2 µM): 0.845
relative viability ([21]; first compound 0.6325 µM): 0.691
relative viability ([21]; first compound 2 µM): 0.538
relative viability ([21]; first compound 6.325 µM): 0.355
relative viability ([21]; first compound 20 µM): 0.0324
relative viability ([22]; first compound 0.2 µM): 1.03
relative viability ([22]; first compound 0.6325 µM): 0.824
relative viability ([22]; first compound 2 µM): 1.07
relative viability ([22]; first compound 6.325 µM): 1.13
relative viability ([22]; first compound 20 µM): 0.899
